Reference: US10226493B2, “Coriolus versicolor extracts, methods of preparation and uses thereof” (priority 2010, dated 2019)

Tested on: herpes simplex virus (HSV)
Experiment: HSV infection in mice, disease severity by hind-limb paralysis score
Assay type: in vivo
Settings: male BALB/c mice, ip once a day; MPUB-EtOH 250 mg/kg, acyclovir 10 mg/kg; versus DMSO-treated controls; FIG. 10
Procedure: To investigate the antiviral effects of C. versicolor extract in vivo, 3-week-old male BALB/c mice (15 mice per group) were administrated intraperitoneally (ip) with dimethyl sulfoxide (DMSO) (solvent for MPUB-EtOH) or MPUB-EtOH (250 mg/kg) once a day at 24 hr intervals for […].
Briefly, the mice were infected with inoculation of HSV ip at 1×10^5 TCID50/ml at day 0. DMSO, MPUB-EtOH or acyclovir (10 mg/kg) were administrated ip once a day at 24 hr intervals for 5 days starting 1 hr after infection. The mice were inspected daily and the disease severity was measured by hind-limb(s) paralysis based on the following scoring system: 0, no paralysis; 1, obvious difficulty in movement of hind limbs; 2, one hind limb incomplete paralysis; 3, one hind limb complete paralysis; 4, both hind limbs incomplete paralysis; 5, both hind limbs complete paralysis.

Question: For `Nc1nc2c(ncn2COCCO)c(=O)[nH]1` [acyclovir], which “severity of HSV infection (hind-limb paralysis score 0-5)” value is on record?
Answer: comparable
